Here are results for 49 molecules from US8987445B2, “Sulfonamide compounds having TRPM8 antagonistic activity” (Mitsubishi Tanabe Pharma Corporation, priority 2011, dated 2015).

As usually defined, the IC50 is the concentration that gives 50% inhibition.

SMILES strings stand for the structures.

TRPM8, sequence (Q8R455 whole entry): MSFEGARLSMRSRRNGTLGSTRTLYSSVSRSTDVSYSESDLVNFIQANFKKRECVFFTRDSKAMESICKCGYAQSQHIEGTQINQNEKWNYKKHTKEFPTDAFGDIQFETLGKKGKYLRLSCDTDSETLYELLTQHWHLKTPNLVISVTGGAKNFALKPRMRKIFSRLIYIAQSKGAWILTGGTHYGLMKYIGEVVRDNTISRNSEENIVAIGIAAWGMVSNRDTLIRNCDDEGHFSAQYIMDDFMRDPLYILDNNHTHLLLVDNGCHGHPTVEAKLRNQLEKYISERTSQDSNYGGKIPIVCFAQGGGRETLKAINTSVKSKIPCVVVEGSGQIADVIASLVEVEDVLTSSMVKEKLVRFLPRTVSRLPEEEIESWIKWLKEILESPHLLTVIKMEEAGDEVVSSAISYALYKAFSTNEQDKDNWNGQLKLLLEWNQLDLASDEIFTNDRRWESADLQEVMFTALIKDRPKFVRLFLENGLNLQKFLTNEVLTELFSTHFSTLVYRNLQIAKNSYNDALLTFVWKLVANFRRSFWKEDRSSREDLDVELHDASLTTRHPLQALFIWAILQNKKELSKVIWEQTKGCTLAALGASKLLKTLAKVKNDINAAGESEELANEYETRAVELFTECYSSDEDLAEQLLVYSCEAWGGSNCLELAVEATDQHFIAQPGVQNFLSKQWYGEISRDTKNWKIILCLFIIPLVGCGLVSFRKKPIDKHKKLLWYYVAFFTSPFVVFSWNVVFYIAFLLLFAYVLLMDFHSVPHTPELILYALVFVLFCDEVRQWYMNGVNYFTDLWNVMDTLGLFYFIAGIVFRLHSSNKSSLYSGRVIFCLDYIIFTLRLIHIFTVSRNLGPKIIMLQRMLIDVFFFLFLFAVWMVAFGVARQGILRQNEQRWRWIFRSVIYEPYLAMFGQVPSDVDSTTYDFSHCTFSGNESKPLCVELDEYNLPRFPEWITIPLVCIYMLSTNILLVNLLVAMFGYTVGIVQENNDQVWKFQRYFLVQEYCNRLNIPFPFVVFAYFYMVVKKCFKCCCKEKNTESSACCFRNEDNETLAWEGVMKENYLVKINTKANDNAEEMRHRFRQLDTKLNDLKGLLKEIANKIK
human TRPM8, sequence (Q7Z2W7 whole entry): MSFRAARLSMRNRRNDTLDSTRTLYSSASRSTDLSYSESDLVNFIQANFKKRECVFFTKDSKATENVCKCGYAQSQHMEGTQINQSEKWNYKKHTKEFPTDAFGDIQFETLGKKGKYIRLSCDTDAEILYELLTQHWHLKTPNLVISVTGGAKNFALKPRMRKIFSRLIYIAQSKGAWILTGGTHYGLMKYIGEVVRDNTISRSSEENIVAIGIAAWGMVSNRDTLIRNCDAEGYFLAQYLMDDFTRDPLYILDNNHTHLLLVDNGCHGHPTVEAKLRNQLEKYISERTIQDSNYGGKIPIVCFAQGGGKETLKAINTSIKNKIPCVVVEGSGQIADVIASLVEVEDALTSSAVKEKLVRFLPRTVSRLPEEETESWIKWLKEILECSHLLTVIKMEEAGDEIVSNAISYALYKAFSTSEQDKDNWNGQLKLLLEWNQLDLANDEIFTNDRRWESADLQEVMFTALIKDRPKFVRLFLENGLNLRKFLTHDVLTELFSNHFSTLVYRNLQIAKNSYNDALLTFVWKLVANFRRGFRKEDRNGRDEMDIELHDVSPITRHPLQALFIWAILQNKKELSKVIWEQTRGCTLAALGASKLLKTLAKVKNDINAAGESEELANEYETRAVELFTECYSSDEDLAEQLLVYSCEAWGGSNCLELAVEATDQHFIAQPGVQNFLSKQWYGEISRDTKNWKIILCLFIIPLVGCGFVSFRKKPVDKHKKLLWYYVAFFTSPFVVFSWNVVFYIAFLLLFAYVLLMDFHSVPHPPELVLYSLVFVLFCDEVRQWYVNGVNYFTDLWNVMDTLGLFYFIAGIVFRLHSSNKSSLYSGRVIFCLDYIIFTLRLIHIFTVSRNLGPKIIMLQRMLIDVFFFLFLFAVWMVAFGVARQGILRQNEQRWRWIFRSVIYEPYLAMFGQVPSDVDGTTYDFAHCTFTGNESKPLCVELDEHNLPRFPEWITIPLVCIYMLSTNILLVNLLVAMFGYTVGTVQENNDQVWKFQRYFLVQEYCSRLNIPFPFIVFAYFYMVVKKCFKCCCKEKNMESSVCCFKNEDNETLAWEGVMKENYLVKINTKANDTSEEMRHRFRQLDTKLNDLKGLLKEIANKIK

The first assay addresses TRPM8 (Rattus norvegicus (Rat), UniProt Q8R455). Nature of the assay: In vivo TRPM8 antagonistic assay in rats (menthol-induced wet-dog shakes). The conditions noted are these: SD male rats; 3 mg/kg po 1 hour prior to menthol 50 mg/kg ip; WDS counted for 5 min. The protocol:
The antagonistic activity of compounds was assessed in the “wet-dog” shakes (WDS) model in rats. […] Pretreatment of the rats with a TRPM8 antagonist prior to menthol administration inhibits the observed shaking behavior.
To assess the ability of a TRPM8 antagonist to prevent menthol induced shaking behavior in Sprague Dawley (SD) male rats, test compounds (3 mg/kg, po, in 0.5% methyl cellulose; N=3-4/group) were administered 1 hour prior to menthol challenge (50 mg/kg, ip, in 10% Macrogol 15 Hydroxystearate/saline). Spontaneous WDS were counted for 5 min post menthol dosing. Inhibition of the spontaneous WDS behavior relative to vehicle pretreatment is expressed as percent inhibition, calculated as follows: % Inhibition=[1−(treatment WDS count/vehicle WDS count)]×100.
`O=C(O)c1ccc(S(=O)(=O)N(Cc2ccc(OC(F)(F)F)cc2)c2ncc3ccccc3c2C(F)(F)F)cc1` [Example 106, 4-({[4-(trifluoromethoxy)benzyl][4-(trifluoromethyl)isoquinolin-3-yl]amino}sulfonyl)benzoic acid]: the “TRPM8 antagonistic assay (% Inhibition @ 3 mg/kg)” value is 92.7%.
On the same count and under the same terms, the figure for `COc1c(N(Cc2ccc(OC(F)(F)F)cc2)S(=O)(=O)c2ccc(C(=O)O)cc2)ncc2ccccc12` [Example 149] is 98.8%.
Still for that read-out and setting: the figure for `O=C(O)c1ccc(S(=O)(=O)N(c2ncc3ccccc3c2C2CC2)C2CCc3cc(OC(F)(F)F)ccc32)cc1` (centres unmarked) [Example 186] is 83.5%; for `CC(C)c1c(N(Cc2ccc(OC(F)(F)F)cc2)S(=O)(=O)c2ccc(C(=O)O)cc2)ncc2ccccc12` [Example 227] it is 72.5%.

Another assay addresses human TRPM8 (Homo sapiens (Human), UniProt Q7Z2W7). Put plainly: TRPM8 inhibition assay (menthol-induced calcium influx, FDSS). The assay is classed as cell-based. The conditions noted are these: HEK293 cells stably expressing human TRPM8; 100 μM menthol; Fura-2AM Ca2+ signal; read-out: TRPM8 Blocking Test (IC50). The protocol: The functional activity of compounds was determined by measuring changes in intracellular calcium concentration using a Ca^2+ sensitive fluorescent dye. The changes in fluorescent signal were monitored by the cell imaging technology by Hamamatsu Photonics's Functional Drug Screening System (FDSS). […] HEK293 cells stably expressing human TRPM8 were grown in flasks. On assay day, the culture medium was removed, and cells were washed with phosphate-buffered saline (PBS) and harvested with PBS containing 2 mM ethylenediaminetetraacetic acid, disodium salt (EDTA, 2Na). […] Subsequently, suspended 20,000 to 50,000 cells per well were incubated with test compound (at varying concentrations) in each well for 20 min at 37° C. Changes in intracellular Ca^2+ evoked by 100 μM menthol were measured for 2 min using FDSS. IC50 vales were determined from four-point concentration-response studies. Curves were generated using the average of quadruplicate wells for each data point.
Consider `O=C(O)c1ccc(S(=O)(=O)N(Cc2ccc(OC(F)(F)F)cc2)c2ncc3ccccc3c2C(F)(F)F)cc1` [Example 106, 4-({[4-(trifluoromethoxy)benzyl][4-(trifluoromethyl)isoquinolin-3-yl]amino}sulfonyl)benzoic acid], for which the IC50 was found to be 2 nM.
Same read-out and setting: the figure for `COc1c(N(Cc2ccc(OC(F)(F)F)cc2)S(=O)(=O)c2ccc(C(=O)O)cc2)ncc2ccccc12` [Example 149] is 3.9 nM.
Same read-out and setting: then `O=C(O)c1ccc(S(=O)(=O)N(c2ncc3ccccc3c2C2CC2)C2CCc3cc(OC(F)(F)F)ccc32)cc1` (centres unmarked) [Example 186], with 4.3 nM; and `Cc1c(N(Cc2ccc(COC(F)(F)F)cc2)S(=O)(=O)c2ccc(C(=O)O)cc2)ncc2ccccc12` [Example 192], with 8.8 nM.
On the same count and under the same terms, the figure for `Cc1c(N(Cc2ccc(CC3(C(F)(F)F)CC3)cc2)S(=O)(=O)c2ccc(C(=O)O)cc2)ncc2ccccc12` [Example 193] is 3.9 nM; for `Cc1c(N(Cc2cc3c(F)cc(F)cc3s2)S(=O)(=O)c2ccc(C(=O)O)cc2)ncc2ccccc12` [Example 194] it is 1.3 nM; for `Cc1c(N(Cc2cc3cc(F)cc(F)c3s2)S(=O)(=O)c2ccc(C(=O)O)cc2)ncc2ccccc12` [Example 195] it is 6 nM.
As for `Cc1c(N(Cc2cc3c(Cl)cccc3s2)S(=O)(=O)c2ccc(C(=O)O)cc2)ncc2ccccc12` [Example 196], the IC50 stood at 2.2 nM.
On to `Cc1c(N(Cc2sc3ccccc3c2Cl)S(=O)(=O)c2ccc(C(=O)O)cc2)ncc2ccccc12` [Example 197], for which the IC50 is 4.6 nM.
`Cc1c(N(Cc2cc3ccc(Cl)cc3s2)S(=O)(=O)c2ccc(C(=O)O)cc2)ncc2ccccc12` [Example 198]: the IC50 worked out at 11 nM.
Still for that read-out and setting: the figure for `Cc1c(N(Cc2cc3cccc(Cl)c3s2)S(=O)(=O)c2ccc(C(=O)O)cc2)ncc2ccccc12` [Example 199] is 3.9 nM.
The same measure, in the same setting: then `Cc1c(N(Cc2cc3cc(Cl)ccc3s2)S(=O)(=O)c2ccc(C(=O)O)cc2)ncc2ccccc12` [Example 200], with 5.4 nM.
Take `Cc1c(N(Cc2ccc(C(F)(F)C3CC3)c(Cl)c2)S(=O)(=O)c2ccc(C(=O)O)cc2)ncc2ccccc12` [Example 201]: the IC50 is 0.6 nM.
Regarding `Cc1cc2ccccc2nc1N(Cc1ccc(C(F)(F)C2CC2)c(Cl)c1)S(=O)(=O)c1ccc(C(=O)O)cc1` [Example 202], the IC50 came out at 1.4 nM.
The same measure, in the same setting: the figure for `Cc1c(N(Cc2ccc(C(F)(F)C3CC3)c(F)c2)S(=O)(=O)c2ccc(C(=O)O)cc2)ncc2ccccc12` [Example 203] is 1.5 nM; for `Cc1cc2ccccc2nc1N(Cc1ccc(C(F)(F)C2CC2)c(F)c1)S(=O)(=O)c1ccc(C(=O)O)cc1` [Example 204] it is 3.1 nM; for `Cc1c(N(Cc2cccc(C(F)(F)C3CC3)c2)S(=O)(=O)c2ccc(C(=O)O)cc2)ncc2ccccc12` [Example 205] it is 31 nM.
Same read-out and setting: then `Cc1cc2ccccc2nc1N(Cc1cccc(C(F)(F)C2CC2)c1)S(=O)(=O)c1ccc(C(=O)O)cc1` [Example 206], with 21 nM.
Still for that read-out and setting: then `Cc1c(N(Cc2ccc(F)c(C(F)(F)C3CC3)c2)S(=O)(=O)c2ccc(C(=O)O)cc2)ncc2ccccc12` [Example 207], with 11 nM; and `Cc1cc2ccccc2nc1N(Cc1ccc(F)c(C(F)(F)C2CC2)c1)S(=O)(=O)c1ccc(C(=O)O)cc1` [Example 208], with 9.6 nM; and `Cc1c(N(Cc2ccc(C(F)(F)C3(C)CC3)cc2)S(=O)(=O)c2ccc(C(=O)O)cc2)ncc2ccccc12` [Example 209], with 1 nM.
With `Cn1ccc2c(N(Cc3ccc(OC(F)(F)F)cc3)S(=O)(=O)c3ccc(C(=O)O)cc3)ncc(Cl)c21` [Example 211], the IC50 was determined as 987 nM.
For the molecule `O=C(O)c1ccc(S(=O)(=O)N(Cc2ccc(OC(F)(F)F)cc2)c2ncc(Cl)c3sccc23)cc1` [Example 212], the half-maximal inhibitory concentration (IC50) was found to be 75 nM.
For the molecule `Cc1c(N(Cc2ccc(OC(F)(F)F)cc2)S(=O)(=O)c2ccc(C(=O)O)cc2)nc(-c2cccnc2)c2ccccc12` [Example 213], the IC50 worked out at 116 nM.
The same measure, in the same setting: the figure for `CCc1nc(N(Cc2ccc(OC(F)(F)F)cc2)S(=O)(=O)c2ccc(C(=O)O)cc2)c(C)c2ccccc12` [Example 214] is 8.1 nM; for `Cc1c(N(Cc2ccc(OC(F)(F)F)cc2)S(=O)(=O)c2ccc(C(=O)O)cc2)nc(C2CC2)c2c(C)cccc12` [Example 215] it is 8.2 nM; for `O=C(O)c1ccc(S(=O)(=O)N(Cc2ccc(OC(F)(F)F)cc2)c2cc3ccccc3c(C3CC3)n2)cc1` [Example 216] it is 66 nM.
Consider `O=C(O)c1ccc(S(=O)(=O)N(Cc2ccc(OC(F)(F)F)cc2)c2cc3c(C4CC4)cccc3cn2)cc1` [Example 217], for which the IC50 was 239 nM.
As to `COCc1nc(N(Cc2ccc(OC(F)(F)F)cc2)S(=O)(=O)c2ccc(C(=O)O)cc2)c(C)c2ccccc12` [Example 218], the IC50 was 21 nM.
Still for that read-out and setting: the figure for `COC(C)(c1ccc(CN(c2ncc3ccccc3c2C)S(=O)(=O)c2ccc(C(=O)O)cc2)cc1F)C(F)(F)F` (centres unmarked) [Example 219] is 2.6 nM; for `CCOC(C)(c1ccc(CN(c2ncc3ccccc3c2C)S(=O)(=O)c2ccc(C(=O)O)cc2)cc1F)C(F)(F)F` (centres unmarked) [Example 220] it is 5 nM; for `COC(C)(c1ccc(CN(c2ncc3ccccc3c2C)S(=O)(=O)c2ccc(C(=O)O)cc2)cc1Cl)C(F)(F)F` (centres unmarked) [Example 222] it is 1.6 nM.
On the same count and under the same terms, then `COC1(C(F)(F)F)CCc2cc(CN(c3ncc4ccccc4c3C)S(=O)(=O)c3ccc(C(=O)O)cc3)ccc21` (centres unmarked) [Example 223], with 3.5 nM.
Consider `COC(C)(c1ccc(CN(c2ncc3ccccc3c2C)S(=O)(=O)c2ccc(C(=O)O)cc2)cc1)C(F)(F)C(F)(F)F` (centres unmarked) [Example 224], for which the IC50 amounted to 5.9 nM.
With `Cc1c(N(Cc2ccc(OC(F)(F)F)cc2)S(=O)(=O)c2ccc(C(=O)O)cc2)nc(C(C)C)c2ccccc12` [Example 225], the IC50 is 2.8 nM.
Turning to `Cc1c(N(Cc2ccc(OC(F)(F)F)cc2)S(=O)(=O)c2ccc(C(=O)O)cc2)nc(C2CCCC2)c2ccccc12` [Example 226], the half-maximal inhibitory concentration (IC50) came to 9.2 nM.
Regarding `CC(C)c1c(N(Cc2ccc(OC(F)(F)F)cc2)S(=O)(=O)c2ccc(C(=O)O)cc2)ncc2ccccc12` [Example 227], the IC50 worked out at 5.6 nM.
`CCOc1nc(N(Cc2ccc(OC(F)(F)F)cc2)S(=O)(=O)c2ccc(C(=O)O)cc2)c(C)c2ccccc12` [Example 228]: the IC50 stood at 7.2 nM.
Same read-out and setting: the figure for `COc1nc(N(Cc2ccc(OC(F)(F)F)cc2)S(=O)(=O)c2ccc(C(=O)O)cc2)c(C)c2cccc(C)c12` [Example 229] is 44 nM; for `Cc1c(N(Cc2ccc(OC(F)(F)F)cc2)S(=O)(=O)c2ccc(C(=O)O)cc2)ncc2cccc(Cl)c12` [Example 230] it is 44 nM.
Same read-out and setting: then `CC(C)c1nc(N(Cc2ccc(OC(F)(F)F)cc2)S(=O)(=O)c2ccc(C(=O)O)cc2)c(C2CC2)c2ccccc12` [Example 231], with 6.9 nM; and `O=C(O)c1ccc(S(=O)(=O)N(Cc2ccc(OC(F)(F)F)cc2)c2nc(C3CC3)c3ccccc3c2C2CC2)cc1` [Example 232], with 10 nM; and `Cc1c(N(Cc2ccc3[nH]cc(Cl)c3c2)S(=O)(=O)c2ccc(C(=O)O)cc2)ncc2ccccc12` [Example 236], with 522 nM.
In the case of `Cc1c(N(Cc2ccc3c(c2)c(Cl)cn3C)S(=O)(=O)c2ccc(C(=O)O)cc2)ncc2ccccc12` [Example 237], the IC50 was determined as 12 nM.
Still for that read-out and setting: then `CNC(=O)c1ccc(S(=O)(=O)N(Cc2ccc(OC(F)(F)F)cc2)c2ncc3ccccc3c2C)cc1` [Example 238], with 103 nM; and `Cc1c(N(Cc2ccc(OC(F)(F)F)cc2)S(=O)(=O)c2ccc(C(=O)NC#N)cc2)ncc2ccccc12` [Example 239], with 14 nM.
Still for that read-out and setting: then `CCONC(=O)c1ccc(S(=O)(=O)N(Cc2ccc(OC(F)(F)F)cc2)c2ncc3ccccc3c2C)cc1` [Example 240], with 18 nM; and `NC(=O)c1ccc(S(=O)(=O)N(Cc2ccc(OC(F)(F)F)cc2)c2ncc3ccccc3c2C2CC2)cc1` [Example 241], with 8.5 nM.
On the same count and under the same terms, the figure for `NC(=O)c1ccc(S(=O)(=O)N(Cc2ccc(OC(F)(F)F)cc2)c2ncc3ccccc3c2C(F)(F)F)cc1` [Example 242] is 10 nM.
